Experimental data published in PMC5772984 (International journal for parasitology, 2017).
Where two headings read alike, the source gives them in different places.

Assays:
HepG2 cells = details: ref Hulverson et al., 2017; cited from earlier work
Cryptosporidium parvum = details: oral dosing; ref Hulverson et al., 2017; cited from earlier work
CRL-8155 cells = details: ref Hulverson et al., 2017; cited from earlier work
[1] = molecular target: UGA1 N-luciferase expressing C. parvum; details: read-out: EC50 in vitro against C. parvum; ref Hulverson et al., 2017; cited from earlier work
Cryptosporidium = details: 1–5 year old malnourished children; ref Amadi et al., 2002; cited from earlier work
[2] = test system: UGA1 N-luciferase expressing C. parvum; assay: Nluc expressing C. parvum in vitro growth inhibition in infected HCT-8 cells; assay type: cell-based; details: Cryptosporidium parvum
C. parvum = details: Cryptosporidium parvum
[3] = test system: Tufts University TU502 C. hominis; details: Cryptosporidium hominis, HCT-8

In the case of `CCOc1ccc2cc(-c3nn(CC4CCNCC4)c4ncnc(N)c34)ccc2n1` [BKI 1318], the In vitro cytotoxicity (HepG2 cells) is listed as “no toxicity”, the “Efficacy when orally dosed in vivo in mice” value (Cryptosporidium parvum) is listed as “lacked efficacy” and the In vitro cytotoxicity (CRL-8155 cells) is listed as “no toxicity”. For the same molecule, the EC50 [1] was 3200 nM.

In the case of `CC(=O)Oc1ccccc1C(=O)Nc1ncc([N+](=O)[O-])s1` [Nitazoxanide, nitazoxanide], the “Effectiveness in children with cryptosporidiosis” value (Cryptosporidium) is listed as “approximately 30%”, the EC50 [2] is listed as 3100 nM and the EC50 (C. parvum; HCT-8, Bunch Grass Farm C. parvum, high-content imaging) is listed as 1900 nM. For the same molecule, the EC50 (C. parvum; HCT-8, University of Arizona C. parvum) was 1680 nM and the EC50 [3] was 2780 nM.
